Results taken from patent US4459290A, “C-23-Modified derivatives of OMT, pharmaceutical compositions and method of use” (priority 1982, dated 1984).
≈ marks a conversion by molar mass, not a printed value. Read-outs that look alike come from different tables or passages of the source.

Experiments:
Mycoplasma hyorhinis = assay: MIC, broth-dilution microtiter test (Table VII); format: cell-based; conditions: M. hyorhinis; broth-dilution microtiter; read-out: MIC
Procedure: (§1) Especially noteworthy is the improved activity against gram-negative bacteria for several derivatives when compared to the activity of OMT. […] The MIC's in Tables V and VI were determined by standard agar-dilution assays. The MIC's in Table VII were obtained using a conventional broth-dilution microtiter test.

[1] = test system: Pasteurella multocida 40G; assay: MIC, broth-dilution microtiter test (Table VII); format: cell-based; conditions: Pasteurella multocida
How it was run: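 Broth microdilution, run as a conventional microtiter test, supplied MICs for the gram-positive S. aureus and the Pasteurella isolates. Enterobacter data instead rest on a standard agar-dilution procedure.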

Mycoplasma gallisepticum = assay: MIC, broth-dilution microtiter test (Table VII); format: cell-based; conditions: Mycoplasmoides gallisepticum
Procedure: as §1

[2] = test system: Streptococcus pyogenes C203; assay: ED50 in mice experimentally infected with S. pyogenes C203 (Table VIII); format: in vivo
Procedure: The C-23 modified derivatives of OMT of this invention have shown in vivo antimicrobial activity against experimental infections. When two doses of test compound were administered to mice experimentally infected with a gram-positive bacterium, S. pyogenes C203, the activity observed was measured as an ED50 value [effective dose in mg/kg to protect 50% of the test animals: see Warren Wick, et al., J. Bacteriol. 81, 233-235 (1961)].

[3] = test system: Haemophilus influenzae R252; assay: MIC, standard agar-dilution assay (Table V); format: cell-based; conditions: Haemophilus influenzae
Procedure: (§2) The MIC's in Tables V and VI were determined by standard agar-dilution assays. The MIC's in Table VII were obtained using a conventional broth-dilution microtiter test.

[4] = test system: Streptococcus pyogenes C203; assay: MIC, standard agar-dilution assay (Table V); format: cell-based; conditions: Streptococcus pyogenes
Procedure: as §2

[5] = test system: Haemophilus influenzae Holt; assay: MIC, standard agar-dilution assay (Table V); format: cell-based; conditions: Haemophilus influenzae
Procedure: as §2

Escherichia coli TEM = assay: MIC, standard agar-dilution assay (Table V); format: cell-based; conditions: Escherichia coli
Procedure: as §2

Pasteurella multocida = assay: Protection of one-day-old chicks against Pasteurella multocida infection (Table IX); format: in vivo; conditions: subcutaneous 30 mg/kg × 2, 1 and 4 hours post-challenge
How it was run: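 One-day-old chicks were challenged subcutaneously with 0.1 ml of a twenty-hour tryptose broth culture of avian P. multocida. Compound was given subcutaneously at 30 mg/kg, 1 and 4 hours post-challenge, and protection against death was followed, with non-medicated infected chicks as controls.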

[6] = P. multocida 40G, broth-dilution microtiter, read-out: MIC
[7] = M. gallisepticum, broth-dilution microtiter, read-out: MIC
[8] = C203, sc, mice, subcutaneous, doses given 1 and 4 hours postinfection, read-out: ED50, Subcutaneous
[9] = E. coli TEM, agar dilution, read-out: MIC
[10] = H. influenzae Holt, ampicillin-sensitive strain, agar dilution, read-out: MIC
[11] = H. influenzae R252, ampicillin-resistant strain, agar dilution, read-out: MIC
[12] = S. pyogenes C203, agar dilution, read-out: MIC

**Q.** Which results are given for `CCC1OC(=O)CC(O)C(C)C(OC2OC(C)C(O)C(N(C)C)C2O)C(CC=O)CC(C)C(=O)C=CC(C)=CC1CN=[N+]=[N-]` (stereo not shown) [Compound 8, 23-Deoxy-23-azido-OMT]?
**A.** MIC (Mycoplasma hyorhinis): 3.12 µg/mL (≈ 5.01 µM); MIC [1, 6]: 1.56 µg/mL (≈ 2.5 µM); MIC (Mycoplasma gallisepticum; [7]): 0.39 µg/mL (≈ 0.626 µM); ED50 ([2]; C203, po, read-out: ED50, Oral): > 100 mg/kg; ED50 [2, 8]: 6.3 mg/kg; MIC ([3]; R252): 1 µg/mL (≈ 1.61 µM); MIC ([4]; C203): 0.125 µg/mL (≈ 0.201 µM); MIC [5]: 1 µg/mL (≈ 1.61 µM); MIC (Escherichia coli TEM): 16 µg/mL (≈ 25.7 µM); Number of deaths/number treated (Pasteurella multocida): 10/10

**Q.** How did the MIC (Mycoplasma hyorhinis) turn out when `CCC1OC(=O)CC(O)C(C)C(OC2OC(C)C(O)C(N(C)C)C2O)C(CC=O)CC(C)C(=O)C=CC(C)=CC1CSc1nnnn1C` (stereo not shown) [Compound 5, 23-Deoxy-23-(1-methyltetrazol-5-yl)thio-OMT] was run?
**A.** 6.25 µg/mL (≈ 8.98 µM)

**Q.** And the MIC [1, 6]?
**A.** 3.12 µg/mL (≈ 4.48 µM)

**Q.** What about the MIC (Mycoplasma gallisepticum) of the same compound?
**A.** 1.56 µg/mL (≈ 2.24 µM)

**Q.** What about the ED50 ([2]; C203, po, read-out: ED50, Oral) of the same compound?
**A.** > 100 mg/kg

**Q.** And the ED50 [2, 8]?
**A.** 13.7 mg/kg

**Q.** And the MIC ([3]; R252)?
**A.** 2 µg/mL (≈ 2.87 µM)

**Q.** And the MIC ([4]; C203)?
**A.** 0.25 µg/mL (≈ 0.359 µM)

**Q.** And the MIC [5]?
**A.** 4 µg/mL (≈ 5.75 µM)

**Q.** What about the MIC (Escherichia coli TEM; [9]) of the same compound?
**A.** 32 µg/mL (≈ 46 µM)

**Q.** What about the “Number of deaths/number treated” value (Pasteurella multocida) of the same compound?
**A.** 3/10

**Q.** Which MIC (Mycoplasma hyorhinis) does the source give for `CCC1OC(=O)CC(O)C(C)C(OC2OC(C)C(O)C(N(C)C)C2O)C(CC=O)CC(C)C(=O)C=CC(C)=CC1CSC(C)=O` (stereo not shown) [Compound 7, 23-Deoxy-23-(acetyl)thio-OMT] here?
**A.** 6.25 µg/mL (≈ 9.53 µM)

**Q.** What about the MIC [1, 6] of the same compound?
**A.** 0.78 µg/mL (≈ 1.19 µM)

**Q.** And the MIC (Mycoplasma gallisepticum; [7])?
**A.** 0.19 µg/mL (≈ 0.29 µM)

**Q.** And the ED50 ([2]; C203, po, read-out: ED50, Oral)?
**A.** > 100 mg/kg

**Q.** What about the ED50 [2, 8] of the same compound?
**A.** 21.4 mg/kg

**Q.** What about the MIC ([3]; R252) of the same compound?
**A.** 2 µg/mL (≈ 3.05 µM)

**Q.** And the MIC ([4]; C203)?
**A.** 0.25 µg/mL (≈ 0.381 µM)

**Q.** And the MIC [5, 10]?
**A.** 1 µg/mL (≈ 1.52 µM)

**Q.** What about the “Number of deaths/number treated” value (Pasteurella multocida) of the same compound?
**A.** 10/10

**Q.** Which results are given for `CCC1OC(=O)CC(O)C(C)C(OC2OC(C)C(O)C(N(C)C)C2O)C(CC=O)CC(C)C(=O)C=CC(C)=CC1CSc1nnc(C)s1` (stereo not shown) [Compound 3, 23-Deoxy-23-(5-methyl-1,3,4-thiadiazol-2-yl)thio-OMT]?
**A.** MIC (Mycoplasma hyorhinis): 6.25 µg/mL (≈ 8.78 µM); MIC [1, 6]: 1.56 µg/mL (≈ 2.19 µM); MIC (Mycoplasma gallisepticum; [7]): 0.19 µg/mL (≈ 0.267 µM); ED50 ([2]; C203, mice, oral, doses given 1 and 4 hours postinfection, read-out: ED50, Oral): 81 mg/kg; ED50 [2, 8]: 22.3 mg/kg; MIC [3, 11]: 2 µg/mL (≈ 2.81 µM); MIC ([4]; C203): 0.125 µg/mL (≈ 0.176 µM); MIC [5]: 2 µg/mL (≈ 2.81 µM); MIC (Escherichia coli TEM; [9]): 32 µg/mL (≈ 44.9 µM); Number of deaths/number treated (Pasteurella multocida): 10/10

**Q.** How did the MIC (Mycoplasma hyorhinis) turn out when `CCC1OC(=O)CC(O)C(C)C(OC2OC(C)C(O)C(N(C)C)C2O)C(CC=O)CC(C)C(=O)C=CC(C)=CC1CSc1ccccc1` (stereo not shown) [Compound 2, 23-Deoxy-23-(phenyl)thio-OMT] was run?
**A.** 12.5 µg/mL (≈ 18.1 µM)

**Q.** And the MIC ([1]; 40G)?
**A.** 0.78 µg/mL (≈ 1.13 µM)

**Q.** What about the MIC (Mycoplasma gallisepticum; [7]) of the same compound?
**A.** 0.09 µg/mL (≈ 0.13 µM)

**Q.** And the ED50 ([2]; C203, po, read-out: ED50, Oral)?
**A.** > 100 mg/kg

**Q.** What about the ED50 [2, 8] of the same compound?
**A.** 25.7 mg/kg

**Q.** What about the MIC [3, 11] of the same compound?
**A.** 1 µg/mL (≈ 1.45 µM)

**Q.** What about the MIC [4, 12] of the same compound?
**A.** 0.015 µg/mL (≈ 0.0217 µM)

**Q.** What about the MIC [5, 10] of the same compound?
**A.** 1 µg/mL (≈ 1.45 µM)

**Q.** And the MIC (Escherichia coli TEM)?
**A.** 8 µg/mL (≈ 11.6 µM)

**Q.** And the “Number of deaths/number treated” value (Pasteurella multocida)?
**A.** 10/10

**Q.** `CCC1OC(=O)CC(O)C(C)C(OC2OC(C)C(O)C(N(C)C)C2O)C(CC=O)CC(C)C(=O)C=CC(C)=CC1CF` (stereo not shown) [Compound 15, 23-Deoxy-23-fluoro-OMT] was tested. Which MIC (Mycoplasma hyorhinis) did it give?
**A.** 0.78 µg/mL (≈ 1.3 µM)

**Q.** And the MIC [1, 6]?
**A.** 1.56 µg/mL (≈ 2.6 µM)

**Q.** What about the MIC (Mycoplasma gallisepticum; [7]) of the same compound?
**A.** 0.09 µg/mL (≈ 0.15 µM)

**Q.** What about the ED50 ([2]; C203, po, read-out: ED50, Oral) of the same compound?
**A.** > 100 mg/kg

**Q.** What about the ED50 [2, 8] of the same compound?
**A.** 4.6 mg/kg

**Q.** And the MIC ([3]; R252)?
**A.** 0.5 µg/mL (≈ 0.834 µM)

**Q.** What about the MIC [4, 12] of the same compound?
**A.** 0.125 µg/mL (≈ 0.208 µM)

**Q.** And the MIC [5, 10]?
**A.** 1 µg/mL (≈ 1.67 µM)

**Q.** What about the MIC (Escherichia coli TEM) of the same compound?
**A.** 8 µg/mL (≈ 13.3 µM)
